Reference: PubChem BioAssay (NCI)
Several values for one entry are separate records, joined by “and”; a condition that tells them apart may be missing. Equal entries are not always repeated.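 These data come from cells grown in 96-well plates and exposed to compound for 48 hours at five concentrations. GI50 marks 50% less growth. TGI denotes the concentration required for complete inhibition of growth.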

Experiments:
Assay in all cases: inhibition of tumour cell growth, NCI panel, 48 h
SK-OV-3 ovarian = system: SK-OV-3 ovarian
RXF 393 renal = system: RXF 393 renal
OVCAR-8 ovarian = system: OVCAR-8 ovarian
T-47D breast = system: T-47D breast
MOLT-4 leukemia = system: MOLT-4 leukemia
OVCAR-3 ovarian = system: OVCAR-3 ovarian
BT-549 breast = system: BT-549 breast
CCRF-CEM leukemia = system: CCRF-CEM leukemia
MDA-MB-435 = system: MDA-MB-435
PC-3 prostate = system: PC-3 prostate

## CC1=C/C(O)CC(=O)Cc2nc(co2)C(=O)N2CCC=C2C(=O)OC(C(C)C)C(C)/C=C\C(=O)NC/C=C\1 (stereo not given)
SK-OV-3 ovarian
  TGI: > 100 µM
RXF 393 renal
  GI50: 27.8 µM
  TGI: > 100 µM
OVCAR-8 ovarian
  GI50: 24.8 µM
  TGI: > 100 µM and 35 µM
T-47D breast
  GI50: 8.3 µM
  TGI: > 48.5 µM and 36.8 µM
MOLT-4 leukemia
  GI50: 8.54 µM
  TGI: > 32.6 µM and 53.5 µM
OVCAR-3 ovarian
  GI50: 13.6 µM
  TGI: 37.6 µM and 93.6 µM
BT-549 breast
  TGI: > 47.9 µM and 51.6 µM
CCRF-CEM leukemia
  GI50: 7.35 µM
  TGI: > 100 µM and 81.9 µM
MDA-MB-435
  GI50: 20.3 µM
  TGI: > 94.2 µM and 80.4 µM
PC-3 prostate
  GI50: 65.4 µM
  TGI: > 100 µM

## CCOC(=O)Nc1ccc(C(=O)/C=C/c2ccccc2)cc1
SK-OV-3 ovarian
  GI50: 26.3 µM
  TGI: 77.5 µM
RXF 393 renal
  GI50: 22.5 µM
  TGI: 49.1 µM
OVCAR-8 ovarian
  GI50: 33.5 µM
  TGI: > 100 µM
T-47D breast
  GI50: 21.6 µM
  TGI: > 100 µM
MOLT-4 leukemia
  GI50: 27.9 µM
  TGI: > 100 µM
OVCAR-3 ovarian
  GI50: 18.9 µM
  TGI: 75.3 µM
BT-549 breast
  GI50: 26.5 µM
  TGI: 67.8 µM
CCRF-CEM leukemia
  GI50: 36.9 µM
  TGI: > 100 µM
MDA-MB-435
  GI50: 5.13 µM
  TGI: > 100 µM
PC-3 prostate
  GI50: 30.9 µM
  TGI: > 100 µM

## COc1cc2oc(-c3cccc(C(=O)Nc4ccc(C)cc4)c3)cc(=O)c2c(OC)c1OC
SK-OV-3 ovarian
  GI50: 3.13 µM
  TGI: 68.4 µM
RXF 393 renal
  GI50: 0.775 µM
  TGI: 5.91 µM
OVCAR-8 ovarian
  GI50: 2.9 µM
  TGI: > 100 µM
T-47D breast
  GI50: 1.94 µM
  TGI: > 100 µM
MOLT-4 leukemia
  GI50: 5.8 µM
  TGI: > 100 µM
OVCAR-3 ovarian
  GI50: 5.39 µM
  TGI: > 100 µM
BT-549 breast
  GI50: 1.71 µM
  TGI: 54.5 µM
CCRF-CEM leukemia
  GI50: 4.38 µM
  TGI: > 100 µM
MDA-MB-435
  GI50: 2.26 µM
  TGI: 7.64 µM
PC-3 prostate
  GI50: 3.49 µM
  TGI: > 100 µM

## CN(C)CCCN1c2ccc(O)cc2Sc2ccc(Cl)cc21
SK-OV-3 ovarian
  TGI: 32.1 µM
RXF 393 renal
  TGI: 32.6 µM
OVCAR-8 ovarian
  TGI: 30.5 µM
T-47D breast
  TGI: 38.7 µM
MOLT-4 leukemia
  TGI: 17.5 µM
OVCAR-3 ovarian
  TGI: 24.5 µM
BT-549 breast
  TGI: 25.2 µM
CCRF-CEM leukemia
  TGI: 22.2 µM
MDA-MB-435
  TGI: 21.1 µM
PC-3 prostate
  TGI: 18 µM

## Cc1ccc(NC(=O)N2CCCCC2)cc1[N+](=O)[O-]
SK-OV-3 ovarian
  GI50: > 100 µM
  TGI: > 100 µM
RXF 393 renal
  GI50: > 100 µM
  TGI: > 100 µM
OVCAR-8 ovarian
  GI50: > 100 µM
  TGI: > 100 µM
T-47D breast
  GI50: 77.1 µM
  TGI: > 100 µM
MOLT-4 leukemia
  GI50: > 100 µM
  TGI: > 100 µM
OVCAR-3 ovarian
  GI50: > 100 µM
  TGI: > 100 µM
BT-549 breast
  GI50: > 100 µM
  TGI: > 100 µM
CCRF-CEM leukemia
  GI50: > 100 µM
  TGI: > 100 µM
MDA-MB-435
  GI50: > 100 µM
  TGI: > 100 µM
PC-3 prostate
  GI50: > 100 µM
  TGI: > 100 µM

## Cc1ccc(S(=O)(=O)N[C@@H](Cc2ccccc2)C(=O)CCl)cc1
SK-OV-3 ovarian
  GI50: 47.5 µM
  TGI: > 100 µM
RXF 393 renal
  GI50: 14.6 µM
  TGI: 37.2 µM
OVCAR-8 ovarian
  GI50: 17.8 µM
  TGI: > 100 µM
T-47D breast
  GI50: 21.4 µM
  TGI: > 100 µM
MOLT-4 leukemia
  GI50: 1.99 µM
  TGI: > 100 µM
OVCAR-3 ovarian
  GI50: 9.5 µM
  TGI: 24.2 µM
BT-549 breast
  GI50: 6.64 µM
  TGI: 24 µM
MDA-MB-435
  TGI: 30.7 µM
PC-3 prostate
  GI50: 5.54 µM
  TGI: 22.6 µM

## COC(=O)[C@@H]1[C@H](O)[C@H](C)[C@H](O)[C@H](C)/C=C\C=C(C)C(=O)Nc2c(C)c(OC(C)=O)c3c(c2O)C(=O)C(C)=C2OCOC(=C23)C(C)=C[C@@](C)(O)[C@H](O)[C@@H](C)[C@H]1OC(C)=O
RXF 393 renal
  TGI: > 100 µM
OVCAR-8 ovarian
  TGI: > 100 µM
MOLT-4 leukemia
  TGI: > 100 µM
BT-549 breast
  TGI: > 100 µM
CCRF-CEM leukemia
  TGI: > 100 µM
PC-3 prostate
  TGI: > 100 µM

## COc1ccccc1Nc1nc2ccccc2c2occc12
SK-OV-3 ovarian
  GI50: 16.1 µM
  TGI: > 50 µM
RXF 393 renal
  GI50: 13.1 µM
  TGI: 23.9 µM
OVCAR-8 ovarian
  GI50: 17.6 µM
  TGI: > 50 µM
T-47D breast
  GI50: 27.5 µM
  TGI: > 50 µM
OVCAR-3 ovarian
  GI50: 20.2 µM
  TGI: > 50 µM
BT-549 breast
  GI50: 15.3 µM
  TGI: 32.1 µM
CCRF-CEM leukemia
  GI50: 27.9 µM
  TGI: > 50 µM
MDA-MB-435
  GI50: 19.1 µM
  TGI: > 50 µM
PC-3 prostate
  GI50: 18.8 µM
  TGI: > 50 µM

## Cc1ccc(N(/C=C/C(=O)C(F)(F)F)CC(=O)c2ccc(Cl)c(Cl)c2)cc1
RXF 393 renal
  GI50: 3.82 µM
  TGI: 19 µM
OVCAR-8 ovarian
  GI50: 14.1 µM
  TGI: 27.1 µM
T-47D breast
  GI50: 12.2 µM
  TGI: 25.8 µM
MOLT-4 leukemia
  GI50: 4.48 µM
  TGI: 19.9 µM
OVCAR-3 ovarian
  GI50: 3.19 µM
  TGI: 16.3 µM
BT-549 breast
  GI50: 2.22 µM
  TGI: 11.2 µM
CCRF-CEM leukemia
  GI50: 4.89 µM
  TGI: 20.8 µM
MDA-MB-435
  GI50: 1.92 µM
  TGI: 3.82 µM
PC-3 prostate
  GI50: 7.06 µM
  TGI: 20 µM

## C/C(=C1/N=C(c2ccccc2)OC1=O)c1ccccc1
SK-OV-3 ovarian
  TGI: > 100 µM
OVCAR-8 ovarian
  TGI: > 100 µM
T-47D breast
  TGI: > 100 µM
MOLT-4 leukemia
  TGI: > 100 µM
OVCAR-3 ovarian
  TGI: > 100 µM
BT-549 breast
  TGI: > 100 µM
CCRF-CEM leukemia
  TGI: > 100 µM
MDA-MB-435
  TGI: > 100 µM
PC-3 prostate
  TGI: > 100 µM

## COc1cccc2c1C(=O)c1c(O)c3c(c(O)c1C2=O)C[C@@](O)(C(C)=O)C[C@@H]3OC1CC(O)C(O)C(C)O1 (stereo not given in full)
SK-OV-3 ovarian
  TGI: 8.99 µM and 42.6 µM
RXF 393 renal
  TGI: 9.33 µM
T-47D breast
  TGI: 36.9 µM
MOLT-4 leukemia
  TGI: 0.523 µM and 0.137 µM
OVCAR-3 ovarian
  TGI: 23.6 µM
BT-549 breast
  TGI: 20.1 µM
CCRF-CEM leukemia
  TGI: 1.98 µM and 2.06 µM
MDA-MB-435
  TGI: 27.7 µM
PC-3 prostate
  TGI: 31.9 µM
